# Measured values reported in ChEMBL document CHEMBL3044830, “Synthesis, characterization, antibacterial, antifungal, and immunomodulating activities of gatifloxacin derivatives” (Med Chem Res, 2010).
# Experiments:
# Pseudomonas aeruginosa [1] = experiment: Antibacterial activity against Pseudomonas aeruginosa assessed as zone of inhibition at 5 to 40 ug/ml after 18 to 24 hr by disk diffusion method relative to gatifloxacin; format: functional
# Proteus mirabilis [2] = experiment: Antibacterial activity against Proteus mirabilis assessed as concentration required to obtain a zone of inhibition of 20 mm after 18 to 24 hr by disc diffusion method; format: functional
# Citrobacter [3] = experiment: Antibacterial activity against Citrobacter assessed as concentration required to obtain a zone of inhibition of 5 mm after 18 to 24 hr by disk diffusion method; format: functional
# Bacillus subtilis [4] = experiment: Antibacterial activity against Bacillus subtilis assessed as concentration required to obtain a zone of inhibition of 5 mm after 18 to 24 hr by disk diffusion method; format: functional
# [5] = Antibacterial activity against Hofmanni bacterium assessed as concentration required to obtain a zone of inhibition of 5 mm after 18 to 24 hr by disc diffusion method
# Klebsiella pneumoniae [6] = experiment: Antibacterial activity against Klebsiella pneumoniae assessed as concentration required to obtain a zone of inhibition of 5 mm after 18 to 24 hr by disk diffusion method; format: functional
# [7] = Antibacterial activity against Hofmanni bacterium assessed as zone of inhibition after 18 to 24 hr by disc diffusion method relative to gatifloxacin
# Bacillus subtilis [8] = experiment: Antibacterial activity against Bacillus subtilis assessed as concentration required to obtain a zone of inhibition of 20 mm after 18 to 24 hr by disk diffusion method; format: functional
# Citrobacter [9] = experiment: Antibacterial activity against Citrobacter assessed as concentration required to obtain a zone of inhibition of 20 mm after 18 to 24 hr by disk diffusion method; format: functional
# [10] = Antibacterial activity against Hofmanni bacterium assessed as concentration required to obtain a zone of inhibition of 10 mm after 18 to 24 hr by disc diffusion method
# Shigella flexneri [11] = experiment: Antibacterial activity against Shigella flexneri assessed as concentration required to obtain a zone of inhibition of 20 mm after 18 to 24 hr by disk diffusion method; format: functional
# [12] = Antibacterial activity against Hofmanni bacterium assessed as concentration required to obtain a zone of inhibition of 20 mm after 18 to 24 hr by disc diffusion method
# Staphylococcus aureus [13] = experiment: Antibacterial activity against methicillin-resistant Staphylococcus aureus assessed as concentration required to obtain a zone of inhibition of 5 mm after 18 to 24 hr by disk diffusion method; format: functional
# Staphylococcus aureus [14] = experiment: Antibacterial activity against methicillin-resistant Staphylococcus aureus assessed as zone of inhibition at 5 to 40 ug/ml after 18 to 24 hr by disk diffusion method relative to gatifloxacin; format: functional
# Proteus mirabilis [15] = experiment: Antibacterial activity against Proteus mirabilis assessed as concentration required to obtain a zone of inhibition of 5 mm after 18 to 24 hr by disc diffusion method; format: functional
# Staphylococcus aureus [16] = experiment: Antibacterial activity against methicillin-resistant Staphylococcus aureus assessed as concentration required to obtain a zone of inhibition of 20 mm after 18 to 24 hr by disk diffusion method; format: functional
# Bacillus subtilis [17] = experiment: Antibacterial activity against Bacillus subtilis assessed as zone of inhibition at 5 to 40 ug/ml after 18 to 24 hr by disk diffusion method relative to gatifloxacin; format: functional
# Shigella sp. [18] = experiment: Antibacterial activity against Shigella typhi assessed as concentration required to obtain a zone of inhibition of 10 mm after 18 to 24 hr by disc diffusion method; format: functional
# Klebsiella pneumoniae [19] = experiment: Antibacterial activity against Klebsiella pneumoniae assessed as concentration required to obtain a zone of inhibition of 10 mm after 18 to 24 hr by disk diffusion method; format: functional
# Shigella sp. [20] = experiment: Antibacterial activity against Shigella typhi assessed as zone of inhibition after 18 to 24 hr by disc diffusion method relative to gatifloxacin; format: functional
# Klebsiella pneumoniae [21] = experiment: Antibacterial activity against Klebsiella pneumoniae assessed as concentration required to obtain a zone of inhibition of 20 mm after 18 to 24 hr by disk diffusion method; format: functional
# Proteus mirabilis [22] = experiment: Antibacterial activity against Proteus mirabilis assessed as concentration required to obtain a zone of inhibition of 10 mm after 18 to 24 hr by disc diffusion method; format: functional
# Pseudomonas aeruginosa [23] = experiment: Antibacterial activity against Pseudomonas aeruginosa assessed as concentration required to obtain a zone of inhibition of 10 mm after 18 to 24 hr by disk diffusion method; format: functional
# Shigella flexneri [24] = experiment: Antibacterial activity against Shigella flexneri assessed as concentration required to obtain a zone of inhibition of 10 mm after 18 to 24 hr by disk diffusion method; format: functional
# Shigella flexneri [25] = experiment: Antibacterial activity against Shigella flexneri assessed as zone of inhibition at 5 to 40 ug/ml after 18 to 24 hr by disk diffusion method relative to gatifloxacin; format: functional
# Pseudomonas aeruginosa [26] = experiment: Antibacterial activity against Pseudomonas aeruginosa assessed as concentration required to obtain a zone of inhibition of 5 mm after 18 to 24 hr by disk diffusion method; format: functional
# Escherichia coli [27] = experiment: Antibacterial activity against Escherichia coli assessed as zone of inhibition at 5 to 40 ug/ml after 18 to 24 hr by disk diffusion method relative to gatifloxacin; format: functional
# Proteus mirabilis [28] = experiment: Antibacterial activity against Proteus mirabilis assessed as zone of inhibition at 5 to 40 ug/ml after 18 to 24 hr by disc diffusion method relative to gatifloxacin; format: functional
# Bacillus subtilis [29] = experiment: Antibacterial activity against Bacillus subtilis assessed as concentration required to obtain a zone of inhibition of 10 mm after 18 to 24 hr by disk diffusion method; format: functional
# Escherichia coli [30] = experiment: Antibacterial activity against Escherichia coli assessed as concentration required to obtain a zone of inhibition of 5 mm after 18 to 24 hr by disk diffusion method; format: functional
# Shigella sp. [31] = experiment: Antibacterial activity against Shigella typhi assessed as concentration required to obtain a zone of inhibition of 5 mm after 18 to 24 hr by disc diffusion method; format: functional
# Citrobacter [32] = experiment: Antibacterial activity against Citrobacter assessed as zone of inhibition at 5 to 40 ug/ml after 18 to 24 hr by disk diffusion method relative to gatifloxacin; format: functional
# Citrobacter [33] = experiment: Antibacterial activity against Citrobacter assessed as concentration required to obtain a zone of inhibition of 10 mm after 18 to 24 hr by disk diffusion method; format: functional
# Shigella flexneri [34] = experiment: Antibacterial activity against Shigella flexneri assessed as concentration required to obtain a zone of inhibition of 5 mm after 18 to 24 hr by disk diffusion method; format: functional
# Escherichia coli [35] = experiment: Antibacterial activity against Escherichia coli assessed as concentration required to obtain a zone of inhibition of 10 mm after 18 to 24 hr by disk diffusion method; format: functional
# Klebsiella pneumoniae [36] = experiment: Antibacterial activity against Klebsiella pneumoniae assessed as zone of inhibition at 5 to 40 ug/ml after 18 to 24 hr by disk diffusion method relative to gatifloxacin; format: functional
# Escherichia coli [37] = experiment: Antibacterial activity against Escherichia coli assessed as concentration required to obtain a zone of inhibition of 20 mm after 18 to 24 hr by disk diffusion method; format: functional
# Pseudomonas aeruginosa [38] = experiment: Antibacterial activity against Pseudomonas aeruginosa assessed as concentration required to obtain a zone of inhibition of 20 mm after 18 to 24 hr by disk diffusion method; format: functional
compound,measurement,setting,value
CO/N=C1\CN(c2nc3c(cc2F)c(=O)c(C(=O)O)cn3C2CC2)CC1CN.CS(=O)(=O)O (stereo not drawn) [GEMIFLOXACIN MESYLATE],inhibition zone (IZ),Pseudomonas aeruginosa [1],75%
same,Activity,Proteus mirabilis [2],12 µg/mL
same,Activity,Citrobacter [3],7 µg/mL
same,Activity,Bacillus subtilis [4],5 µg/mL
same,Activity,[5],5 µg/mL
same,Activity,Klebsiella pneumoniae [6],10 µg/mL
same,inhibition zone (IZ),[7],56.6%
same,Activity,Bacillus subtilis [8],8 µg/mL
same,Activity,Citrobacter [9],11 µg/mL
same,Activity,[10],7 µg/mL
same,Activity,Shigella flexneri [11],13 µg/mL
same,Activity,[12],8 µg/mL
same,Activity,Staphylococcus aureus [13],9 µg/mL
same,inhibition zone (IZ),Staphylococcus aureus [14],69.8%
same,Activity,Proteus mirabilis [15],10 µg/mL
same,Activity,Staphylococcus aureus [16],14 µg/mL
same,inhibition zone (IZ),Bacillus subtilis [17],46.3%
same,Activity,Shigella sp. [18],9 µg/mL
same,Activity,Klebsiella pneumoniae [19],11 µg/mL
same,inhibition zone (IZ),Shigella sp. [20],75.5%
same,Activity,Klebsiella pneumoniae [21],12 µg/mL
same,Activity,Proteus mirabilis [22],11 µg/mL
same,Activity,Pseudomonas aeruginosa [23],9 µg/mL
same,Activity,Shigella flexneri [24],8 µg/mL
same,inhibition zone (IZ),Shigella flexneri [25],61.4%
same,Activity,Pseudomonas aeruginosa [26],8 µg/mL
same,inhibition zone (IZ),Escherichia coli [27],75.72%
same,inhibition zone (IZ),Proteus mirabilis [28],82.5%
same,Activity,Bacillus subtilis [29],7 µg/mL
same,Activity,Escherichia coli [30],7 µg/mL
same,Activity,Shigella sp. [31],8 µg/mL
same,inhibition zone (IZ),Citrobacter [32],42.83%
same,Activity,Citrobacter [33],9 µg/mL
same,Activity,Shigella flexneri [34],7 µg/mL
same,Activity,Escherichia coli [35],9 µg/mL
same,inhibition zone (IZ),Klebsiella pneumoniae [36],84.2%
same,Activity,Escherichia coli [37],10 µg/mL
same,Activity,Pseudomonas aeruginosa [38],10 µg/mL
